Laboratory results from patent US20240116985A1, “STAPLED PEPTIDES AND METHODS THEREOF” (priority 2020, published 2024).
pIC50: −log10 of the molar value. In brackets after ≈: the same amount, converted by molar mass. Where two headings read alike, the source gives them in different places.

Legend:
[1] = molecular target: T1, full-length beta-Catenin (Uniprot ID P35222) (Homo sapiens, UniProt P35222); assay: Fluorescence polarization IC50 (beta-catenin / 5FAM-TCF4 10-53 competition); format: binding
T1 construct: 10 nM full-length beta-Catenin (Uniprot ID P35222)
T1 sequence (P35222 1-781): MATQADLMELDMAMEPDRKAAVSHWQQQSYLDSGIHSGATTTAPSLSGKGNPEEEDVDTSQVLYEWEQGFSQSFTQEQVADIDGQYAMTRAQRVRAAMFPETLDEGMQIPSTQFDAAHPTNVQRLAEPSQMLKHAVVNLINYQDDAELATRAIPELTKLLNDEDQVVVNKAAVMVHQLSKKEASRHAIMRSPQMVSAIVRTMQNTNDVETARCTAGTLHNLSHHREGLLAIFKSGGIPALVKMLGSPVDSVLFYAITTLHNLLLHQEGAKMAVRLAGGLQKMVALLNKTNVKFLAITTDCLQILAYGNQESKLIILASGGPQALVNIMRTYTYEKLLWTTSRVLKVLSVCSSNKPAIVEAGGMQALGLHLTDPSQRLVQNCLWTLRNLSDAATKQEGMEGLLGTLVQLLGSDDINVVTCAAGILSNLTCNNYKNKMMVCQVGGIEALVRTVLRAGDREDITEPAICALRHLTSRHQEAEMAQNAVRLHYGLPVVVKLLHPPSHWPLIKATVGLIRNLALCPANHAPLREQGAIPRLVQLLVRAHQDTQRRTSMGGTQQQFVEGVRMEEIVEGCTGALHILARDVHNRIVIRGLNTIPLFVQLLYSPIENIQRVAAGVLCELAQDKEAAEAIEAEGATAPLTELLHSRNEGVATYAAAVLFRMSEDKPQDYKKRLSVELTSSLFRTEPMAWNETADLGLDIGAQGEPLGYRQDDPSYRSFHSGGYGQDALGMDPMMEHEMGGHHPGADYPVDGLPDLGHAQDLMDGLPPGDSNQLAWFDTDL

CHI Log D procedure = format: physicochemical
Solubility in PBS = format: physicochemical
In short: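 HPLC quantitation of peptide remaining in the PBS supernatant after ultracentrifugation, referenced to a 50 μM solution in DMSO.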

[2] = Table E2-1, read-out: beta-Catenin FP IC50
[3] = fluorescence polarization, beta-catenin, read-out: FP EC50

Row | SMILES | pIC50 [1, 2] | chromatographic logD (CHI Log D procedure; pH 7.4, CHI Log D) | Solubility (Solubility in PBS; Solubility (uM)) [µM] | pIC50 [1, 3] | CHI Log D (CHI Log D procedure; pH 7.4) | Solubility (Solubility in PBS) [µM] | IC50 ([1]; beta-Catenin FP IC50 (nM), Table E2-1) [nM] | chromatographic logD (CHI Log D procedure; pH 7.4)
1 | CC(=O)N1CCC[C@]12CC=CCCCC1(CCCC=CCCCCCC[C@@](C)(C(=O)N[C@@H](Cc3ccccc3)C(=O)N[C@@H](Cc3c[nH]c4ccccc34)C(=O)N[C@@H](CCC(N)=O)C(N)=O)NC(=O)[C@H](C(C)C)NC(=O)[C@H](Cc3ccsc3)NC(=O)[C@H](C)NC(=O)[C@H](C)NC(=O)[C@H](CC(=O)O)NC(=O)[C@H](CC(=O)O)NC1=O)NC(=O)[C@H](C)NC(=O)[C@H](CC(=O)O)NC2=O (stereo partly drawn) [I-326, Ac-PL3-Asp-Ala-B5-Asp-Asp-Ala-Ala-3Thi-Val-S8-Phe-Trp-Gln-NH2] | 5.76 | 1.97 | 34 (≈ 60.8 µg/mL) | – | – | – | – | –
2 | CC(=O)N1CCC[C@]12CC=CCCCC1(CCCC=CCCCCCC[C@@](C)(C(=O)N[C@@H](Cc3ccccc3)C(=O)N[C@@H](Cc3c[nH]c4ccccc34)C(=O)N[C@@H](CCC(N)=O)C(N)=O)NC(=O)[C@H](C(C)C)NC(=O)[C@H](Cc3ccco3)NC(=O)[C@H](C)NC(=O)[C@H](C)NC(=O)[C@H](CC(=O)O)NC(=O)[C@H](CC(=O)O)NC1=O)NC(=O)[C@H](C)NC(=O)[C@H](CC(=O)O)NC2=O (stereo partly drawn) [I-327, Ac-PL3-Asp-Ala-B5-Asp-Asp-Ala-Ala-2FurA-Val-S8-Phe-Trp-Gln-NH2] | 5.33 | – | – | 5.33 | 1.958 | 43 (≈ 76.2 µg/mL) | – | –
3 | CC(=O)N1CCC[C@]12CC=CCCCC1(CCCC=CCCCCCC[C@@](C)(C(=O)N[C@@H](Cc3ccccc3)C(=O)N[C@@H](Cc3c[nH]c4ccccc34)C(=O)N[C@@H](CCC(N)=O)C(N)=O)NC(=O)[C@H](C(C)C)NC(=O)[C@H](Cc3ccco3)NC(=O)[C@H](C)NC(=O)[C@H](C)NC(=O)[C@H](CC(=O)O)NC(=O)[C@H](CC(=O)O)NC1=O)NC(=O)[C@H](C)NC(=O)[C@H](CC(=O)O)NC2=O (stereo partly drawn) [I-328, Ac-PL3-Asp-Ala-B5-Asp-Asp-Ala-Ala-2FurA-Val-S8-Phe-Trp-Gln-NH2] | 5.72 | – | – | 5.72 | 1.983 | 44 (≈ 77.9 µg/mL) | – | –
4 | CC(=O)N1CCC[C@]12CC=CCCCC1(CCCC=CCCCCCC[C@@](C)(C(=O)N[C@@H](Cc3ccccc3C(N)=O)C(=O)N[C@@H](Cc3csc4ccccc34)C(=O)N[C@@H](CCC(N)=O)C(N)=O)NC(=O)[C@H](C(C)C)NC(=O)[C@H](Cc3ccccc3)NC(=O)[C@H](C)NC(=O)[C@H](C)NC(=O)[C@H](CC(=O)O)NC(=O)[C@H](CC(=O)O)NC1=O)NC(=O)[C@H](C)NC(=O)[C@H](CC(=O)O)NC2=O (stereo partly drawn) [I-336, Ac-PL3-Asp-Ala-B5-Asp-Asp-Ala-Ala-Phe-Val-S8-2CBMF-BztA-Gln-NH2] | 6.82 | 1.74 | 48 (≈ 88.4 µg/mL) | – | – | – | – | –
5 | CC(=O)N1CCC[C@]12CC=CCCCC1(CCCC=CCCCCCC[C@@](C)(C(=O)N[C@@H](Cc3ccc(O)cc3)C(=O)N[C@@H](Cc3csc4ccccc34)C(=O)N[C@@H](CCC(N)=O)C(N)=O)NC(=O)[C@H](C(C)C)NC(=O)[C@H](Cc3ccccc3)NC(=O)[C@H](C)NC(=O)[C@H](C)NC(=O)[C@H](CC(=O)O)NC(=O)[C@H](CC(=O)O)NC1=O)NC(=O)[C@H](C)NC(=O)[C@H](CC(=O)O)NC2=O (stereo partly drawn) [I-341, Ac-PL3-Asp-Ala-B5-Asp-Asp-Ala-Ala-Phe-Val-S8-Tyr-BztA-Gln-NH2] | 5.70 | 1.73 | 38 (≈ 68.9 µg/mL) | – | – | – | – | –
6 | CC(=O)N1CCC[C@]12CC=CCCCC1(CCCC=CCCCCCC[C@@](C)(C(=O)N[C@@H](Cc3ccccc3)C(=O)N[C@@H](Cc3csc4ccccc34)C(=O)N[C@@H](CCC(N)=O)C(N)=O)NC(=O)[C@H]([C@@H](C)O)NC(=O)[C@H](Cc3ccccc3)NC(=O)[C@H](C)NC(=O)[C@H](C)NC(=O)[C@H](CC(=O)O)NC(=O)[C@H](CC(=O)O)NC1=O)NC(=O)[C@H](C)NC(=O)[C@H](CC(=O)O)NC2=O (stereo partly drawn) [I-342, Ac-PL3-Asp-Ala-B5-Asp-Asp-Ala-Ala-Phe-Thr-S8-Phe-BztA-Gln-NH2] | 7.23 | 2.07 | – | – | – | 50 (≈ 90 µg/mL) | – | –
7 | CC(=O)N1CCC[C@]12CC=CCCCC1(CCCC=CCCCCCC[C@@](C)(C(=O)N[C@@H](Cc3ccccc3)C(=O)N[C@@H](Cc3csc4ccccc34)C(=O)N[C@@H](CCC(N)=O)C(N)=O)NC(=O)[C@H](CC(N)=O)NC(=O)[C@H](Cc3ccccc3)NC(=O)[C@H](C)NC(=O)[C@H](C)NC(=O)[C@H](CC(=O)O)NC(=O)[C@H](CC(=O)O)NC1=O)NC(=O)[C@H](C)NC(=O)[C@H](CC(=O)O)NC2=O (stereo partly drawn) [I-343, Ac-PL3-Asp-Ala-B5-Asp-Asp-Ala-Ala-Phe-Asn-S8-Phe-BztA-Gln-NH2] | 6.76 | – | – | 6.76 | 1.931 | 50 (≈ 90.7 µg/mL) | – | –
8 | CC(=O)N1CCC[C@]12CC=CCCCC1(CCCC=CCCCCCC[C@@](C)(C(=O)N[C@@H](Cc3ccccc3)C(=O)N[C@@H](Cc3csc4ccccc34)C(=O)N[C@@H](CCC(N)=O)C(N)=O)NC(=O)[C@H](CC(N)=O)NC(=O)[C@H](Cc3ccccc3)NC(=O)[C@H](C)NC(=O)[C@H](C)NC(=O)[C@H](CC(=O)O)NC(=O)[C@H](CC(=O)O)NC1=O)NC(=O)[C@H](C)NC(=O)[C@H](CC(=O)O)NC2=O (stereo partly drawn) [I-344, Ac-PL3-Asp-Ala-B5-Asp-Asp-Ala-Ala-Phe-Asn-S8-Phe-BztA-Gln-NH2] | 7.38 | – | – | 7.38 | 1.977 | 44 (≈ 79.8 µg/mL) | – | –
9 | COC[C@@H]1NC(=O)[C@H](CC(=O)O)NC(=O)[C@]2(CC=CCCCC3(CCCC=CCCCCCC[C@@](C)(C(=O)N[C@@H](Cc4ccccc4)C(=O)N[C@@H](Cc4csc5ccccc45)C(=O)N[C@@H](CCC(N)=O)C(N)=O)NC(=O)[C@H](C(C)C)NC(=O)[C@H](Cc4ccccc4)NC(=O)[C@H](C)NC(=O)[C@H](C)NC(=O)[C@H](CC(=O)O)NC(=O)[C@H](CC(=O)O)NC3=O)NC1=O)CCCN2C(C)=O (stereo partly drawn) [I-345, Ac-PL3-Asp-S(OMe)-B5-Asp-Asp-Ala-Ala-Phe-Val-S8-Phe-BztA-Gln-NH2] | 6.87 | 2.14 | 49 (≈ 89.6 µg/mL) | – | – | – | – | –
10 | CC(=O)N1CCC[C@]12CC=CCCCC1(CCCC=CCCCCCC[C@@](C)(C(=O)N[C@@H](Cc3ccccc3)C(=O)N[C@@H](Cc3csc4ccccc34)C(=O)N[C@@H](CCC(N)=O)C(N)=O)NC(=O)[C@H](C(C)C)NC(=O)[C@H](Cc3ccccc3)NC(=O)[C@H](C)NC(=O)[C@H](C)NC(=O)[C@H](CC(=O)O)NC(=O)[C@H](CC(=O)O)NC1=O)NC(=O)[C@H](CCC(N)=O)NC(=O)[C@H](CC(=O)O)NC2=O (stereo partly drawn) [I-346, Ac-PL3-Asp-Gln-B5-Asp-Asp-Ala-Ala-Phe-Val-S8-Phe-BztA-Gln-NH2] | 6.74 | – | – | 6.74 | 1.943 | 44 (≈ 81.6 µg/mL) | – | –
11 | CC(=O)N1CCC[C@]12CC=CCCCC1(CCCC=CCCCCCC[C@@](C)(C(=O)N[C@@H](Cc3ccccc3)C(=O)N[C@@H](Cc3csc4ccccc34)C(=O)N[C@@H](CCC(N)=O)C(N)=O)NC(=O)[C@H](C(C)C)NC(=O)[C@H](Cc3ccccc3)NC(=O)[C@H](C)NC(=O)[C@H](C)NC(=O)[C@H](CC(=O)O)NC(=O)[C@H](CC(=O)O)NC1=O)NC(=O)[C@H](CCC(N)=O)NC(=O)[C@H](CC(=O)O)NC2=O (stereo partly drawn) [I-347, Ac-PL3-Asp-Gln-B5-Asp-Asp-Ala-Ala-Phe-Val-S8-Phe-BztA-Gln-NH2] | 6.92 | – | – | 6.92 | 1.956 | 50 (≈ 92.8 µg/mL) | – | –
12 | CC(=O)N1CCC[C@]12CC=CCCCC1(CCCC=CCCCCCC[C@@](C)(C(=O)N[C@@H](Cc3ccccc3)C(=O)N[C@@H](Cc3c[nH]c4ccccc34)C(=O)N[C@@H](CCC(N)=O)C(N)=O)NC(=O)[C@H](C(C)C)NC(=O)[C@H](Cc3ccccc3)NC(=O)[C@H](C)NC(=O)[C@H](C)NC(=O)[C@H](C)NC(=O)[C@H](CC(=O)O)NC1=O)NC(=O)[C@H](C)NC(=O)[C@H](CC(=O)O)NC2=O (stereo partly drawn) [I-352, Ac-PL3-Asp-Ala-B5-Asp-Ala-Ala-Ala-Phe-Val-S8-Phe-Trp-Gln-NH2] | – | – | – | – | – | 10 (≈ 17.4 µg/mL) | 5000 | 2.51
13 | CC(=O)N1CCC[C@]12CC=CCCCC1(CCCC=CCCCCCC[C@@](C)(C(=O)N[C@@H](Cc3ccc(C#N)cc3)C(=O)N[C@@H](Cc3csc4ccccc34)C(=O)N[C@@H](CCC(N)=O)C(N)=O)NC(=O)[C@H](C(C)C)NC(=O)[C@H](Cc3ccccc3)NC(=O)[C@H](C)NC(=O)[C@H](C)NC(=O)[C@H](CC(=O)O)NC(=O)[C@H](CC(=O)O)NC1=O)NC(=O)[C@H](C)NC(=O)[C@H](CC(=O)O)NC2=O (stereo partly drawn) [I-359, Ac-PL3-Asp-Ala-B5-Asp-Asp-Ala-Ala-Phe-Val-S8-4CNF-BztA-Gln-NH2] | 5.30 | 2.06 | 30 (≈ 54.7 µg/mL) | – | – | – | – | –
